Assay results: patent US20080161400A1, “USE OF FORMS OF PROPOFOL FOR TREATING DISEASES ASSOCIATED WITH OXIDATIVE STRESS” (XenoPort, Inc., priority 2006, published 2008)

How the values were obtained:
rats = experiment: Acute toxicity study in rats, single oral dose; assay type: in vivo
Procedure: Acute toxicity studies in rats were undertaken to assess the tolerance of a single oral dose of compound (2) formulated in water. […] Complete recovery from hypoactivity, sedation, and anesthesia occurred in all rats within about 8 hours after dose. Doses above about 1552 mg-eq/kg (about 800 mg-eq/kg of propofol) were not tested.

male beagle dogs = experiment: Acute toxicity study in dogs, single oral dose; assay type: in vivo
Procedure: Acute toxicity studies were also performed by orally administering a single dose of compound (2) formulated in water to groups of male beagle dogs at doses from about 25 mg-eq/kg to about 150 mg-eq/kg.

male rats = experiment: Multiple dose study in rats, five days, oral gavage once a day; assay type: in vivo; conditions: 49 to 97 mg-eq/kg orally once a day for five days
Procedure: Multiple dose studies in rats were performed by orally administering compound (2) formulated in water to groups of male rats at doses of 49 mg-eq/kg to 97 mg-eq/kg for a period of five days, by oral gavages administered once a day.

[1] = orally administered as a homogeneous liquid suspension, relative to an equivalent intravenous dose of propofol; cited from earlier work
[2] = oral dosing, rats; cited from earlier work

CC(C)c1cccc(C(C)C)c1OC(=O)OC[C@H](N)C(=O)O (stereo in doubt) [compound (2), 2-amino-3-(2,6-diisopropyl-phenoxycarbonyloxy)-propanoic acid]
Time to complete recovery from hypoactivity, sedation, and anesthesia after dose (rats; all rats, single oral dose): ≤ 8 h | Tolerance of a single oral dose (rats; rats, about 49 mg-eq/kg to about 1552 mg-eq/kg of administered compound, in water): well tolerated | Hypoactivity (rats; rats, single oral dose about 49 up to about 388 mg-eq/kg, within about 30 minutes of dose, maintained up to 4 hours post dose): Transient hypoactivity was observed | Sedation (rats; rats, single oral dose about 582 up to about 970 mg-eq/kg, within about 1.5 hours of dose, lasted up to 4 hours post dose): Sedation was observed | Anesthesia (rats; rats, single oral dose about 1164 up to about 1552 mg-eq/kg, within about 1 hour of dose, lasted up to about 2 hours post dose): Anesthesia was observed | Tolerance of a single oral dose (male beagle dogs; about 25 mg-eq/kg to about 150 mg-eq/kg, in water): well tolerated | Sedation or anesthesia (male beagle dogs; single oral dose about 25 to about 150 mg-eq/kg): No sedation or anesthesia was observed | Adverse effects (male rats): No adverse effects were observed | Sedation or anesthesia (male rats): No sedation or anesthesia was observed | Tolerance of multiple doses (male rats): well tolerated

CC(C)c1cccc(C(C)C)c1O [propofol, 2,6-diisopropylphenol]
Oral bioavailability [1]: less than 5% | Administered drug undergoing first pass metabolism [2]: approximately 90%
